ChEMBL document CHEMBL4627246, “Pyroglutamide-Based P2X7 Receptor Antagonists Targeting Inflammatory Bowel Disease” (J Med Chem, 2020)

Assays:
Format in all cases: cell-based
KM12 = assay: Cytotoxicity against human KM12 cells assessed as effect on cell growth at 10 uM incubated for 48 hrs by sulforhodamine B assay; conditions: km12, 48 h
UACC-257 = assay: Cytotoxicity against human UACC257 cells assessed as effect on cell growth at 10 uM incubated for 48 hrs by sulforhodamine B assay; conditions: uacc-257, 48 h
PC-3 = assay: Cytotoxicity against human PC3 cells assessed as effect on cell growth at 10 uM incubated for 48 hrs by sulforhodamine B assay; conditions: pc-3, 48 h
IGROV-1 = assay: Cytotoxicity against human IGROV1 cells assessed as effect on cell growth at 10 uM incubated for 48 hrs by sulforhodamine B assay; conditions: igrov-1, 48 h
RPMI-8226 = assay: Cytotoxicity against human RPMI8226 cells assessed as effect on cell growth at 10 uM incubated for 48 hrs by sulforhodamine B assay; conditions: rpmi-8226, 48 h
CCRF-CEM = assay: Cytotoxicity against human CCRF-CEM cells assessed as effect on cell growth at 10 uM incubated for 48 hrs by sulforhodamine B assay
SNB-75 = assay: Cytotoxicity against human SNB75 cells assessed as effect on cell growth at 10 uM incubated for 48 hrs by sulforhodamine B assay; conditions: snb-75, 48 h
ACHN = assay: Cytotoxicity against human ACHN cells assessed as effect on cell growth at 10 uM incubated for 48 hrs by sulforhodamine B assay
SF-295 = assay: Cytotoxicity against human SF295 cells assessed as effect on cell growth at 10 uM incubated for 48 hrs by sulforhodamine B assay; conditions: sf-295, 48 h
LOX IMVI = assay: Cytotoxicity against human LOXIMVI cells assessed as effect on cell growth at 10 uM incubated for 48 hrs by sulforhodamine B assay
NCI/ADR-RES = assay: Cytotoxicity against human NCI/ADR-RES cells assessed as effect on cell growth at 10 uM incubated for 48 hrs by sulforhodamine B assay
Malme-3M = assay: Cytotoxicity against human MALME-3M cells assessed as effect on cell growth at 10 uM incubated for 48 hrs by sulforhodamine B assay
OVCAR-4 = assay: Cytotoxicity against human OVCAR4 cells assessed as effect on cell growth at 10 uM incubated for 48 hrs by sulforhodamine B assay; conditions: ovcar-4, 48 h
HL-60(TB) = assay: Cytotoxicity against human HL-60(TB) cells assessed as effect on cell growth at 10 uM incubated for 48 hrs by sulforhodamine B assay
U-251 = assay: Cytotoxicity against human U251 cells assessed as effect on cell growth at 10 uM incubated for 48 hrs by sulforhodamine B assay; conditions: u-251, 48 h
T47D = assay: Cytotoxicity against human T47D cells assessed as effect on cell growth at 10 uM incubated for 48 hrs by sulforhodamine B assay
NCI-H460 = assay: Cytotoxicity against human NCI-H460 cells assessed as effect on cell growth at 10 uM incubated for 48 hrs by sulforhodamine B assay; conditions: nci-h460, 48 h
HCT-116 = assay: Cytotoxicity against human HCT116 cells assessed as effect on cell growth at 10 uM incubated for 48 hrs by sulforhodamine B assay; conditions: hct-116, 48 h
MDA-MB-468 = assay: Cytotoxicity against human MDA-MB-468 cells assessed as effect on cell growth at 10 uM incubated for 48 hrs by sulforhodamine B assay; conditions: mda-mb-468, 48 h
OVCAR-3 = assay: Cytotoxicity against human OVCAR3 cells assessed as effect on cell growth at 10 uM incubated for 48 hrs by sulforhodamine B assay; conditions: ovcar-3, 48 h

Measured: Activity

O=C(NCc1ccc(Cl)cc1Cl)[C@@H]1CCC(=O)N1Cc1ccc(Cl)cc1
Non-Toxic: all assays above

O=C(NCc1ccc(Cl)cc1Cl)[C@@H]1CCC(=O)N1c1ccccc1
Non-Toxic: all assays above

O=C(NCc1ccc(Cl)cc1Cl)[C@@H]1CCC(=O)N1c1cscn1
Non-Toxic: all assays above

O=C(NCc1ccc(Cl)cc1Cl)[C@@H]1CCC(=O)N1c1cccs1
Non-Toxic: all assays above

O=C1N[C@H](C(=O)NCc2ccc(Cl)cc2Cl)C/C1=C\N1CCOCC1
Non-Toxic: all assays above

COc1ccc(N2C(=O)CC[C@H]2C(=O)NCc2ccc(Cl)cc2Cl)cc1
Non-Toxic: all assays above

CN1CCN(/C=C2\C[C@@H](C(=O)NCc3ccc(Cl)cc3Cl)N(c3cccs3)C2=O)CC1
Non-Toxic: all assays above

COc1ccc(NC(=O)[C@@H]2C/C(=C\N(C)C)C(=O)N2)cc1
Non-Toxic: all assays above
